ChEMBL document CHEMBL1201862, “PubChem BioAssay data set” (2004)
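Interpolation was linear, between the two tested concentrations surrounding the appropriate level; five concentrations were tested over 48 hours in 96-well plates. GI50: concentration for 50% inhibition of growth.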 Activity calls are given as the source filed them. Cut-off read from the data, not from the text of the source: active = GI50 up to about 1.1 µM and inactive = higher.

Columns and labels:
Experiment in all cases: NCI-60 cell line screen, 48 h
K562 = tested on: K562
A549 = tested on: A549
CAKI-1 = tested on: CAKI-1
HL-60 = tested on: HL-60
M14 = tested on: M14
SR = tested on: SR
HCC 2998 = tested on: HCC 2998
EKVX = tested on: EKVX
TK-10 = tested on: TK-10
HOP-62 = tested on: HOP-62
HCT-116 = tested on: HCT-116
LOX IMVI = tested on: LOX IMVI
IGROV-1 = tested on: IGROV-1
SK-OV-3 = tested on: SK-OV-3
KM12 = tested on: KM12
BT-549 = tested on: BT-549
RPMI-8226 = tested on: RPMI-8226
ACHN = tested on: ACHN
CCRF-CEM = tested on: CCRF-CEM
SNB-75 = tested on: SNB-75

| SMILES | GI50 (K562) | GI50 (A549) | GI50 (CAKI-1) | GI50 (HL-60) | GI50 (M14) | GI50 (SR) | GI50 (HCC 2998) | GI50 (EKVX) | GI50 (TK-10) | GI50 (HOP-62) | GI50 (HCT-116) | GI50 (LOX IMVI) | GI50 (IGROV-1) | GI50 (SK-OV-3) | GI50 (KM12) | GI50 (BT-549) | GI50 (RPMI-8226) | GI50 (ACHN) | GI50 (CCRF-CEM) | GI50 (SNB-75) |
| --- | --- | --- | --- | --- | --- | --- | --- | --- | --- | --- | --- | --- | --- | --- | --- | --- | --- | --- | --- | --- |
| Cc1ccc(C)c(C(=N)c2ccccc2Cc2ccccc2)c1 | 17.9 µM (inactive) | 24.2 µM (inactive) | 22.6 µM (inactive) | 18.5 µM (inactive) | 24.2 µM (inactive) | 19.2 µM (inactive) | 15.9 µM (inactive) | 19 µM (inactive) | 47.9 µM (inactive) | 24.3 µM (inactive) | 12.6 µM (inactive) | 17.3 µM (inactive) | 25.6 µM (inactive) | 26.8 µM (inactive) | 20.2 µM (inactive) | 32.7 µM (inactive) | 12.3 µM (inactive) | 18.2 µM (inactive) | – | – |
| N#Cc1ccccc1NC(=O)C(O)C(O)C(O)C(O)C=O (stereo unspecified) | > 100 µM (inactive) | > 100 µM (inactive) | > 100 µM (inactive) | > 100 µM (inactive) | > 100 µM (inactive) | > 100 µM (inactive) | > 100 µM (inactive) | > 100 µM (inactive) | > 100 µM (inactive) | – | > 100 µM (inactive) | > 100 µM (inactive) | > 100 µM (inactive) | > 100 µM (inactive) | > 100 µM (inactive) | > 100 µM (inactive) | – | > 100 µM (inactive) | > 100 µM (inactive) | > 100 µM (inactive) |
| O=C(O)CCCCCNC(=O)CCC(CN(CC(=O)OCc1ccccc1)CC(=O)OCc1ccccc1)N(CC(=O)OCc1ccccc1)CC(=O)OCc1ccccc1 (stereo unspecified) | 12.5 µM (inactive) | 17.4 µM (inactive) | 18.3 µM (inactive) | 15 µM (inactive) | 17.5 µM (inactive) | 20.9 µM (inactive) | 15.2 µM (inactive) | 22 µM (inactive) | 16.3 µM (inactive) | 20.1 µM (inactive) | 17.1 µM (inactive) | 19.2 µM (inactive) | 17.6 µM (inactive) | 13.3 µM (inactive) | 17.6 µM (inactive) | 18.9 µM (inactive) | 10.3 µM (inactive) | 18.1 µM (inactive) | 16 µM (inactive) | – |
| O=S1(=O)N=C(SCc2ccccc2)N(c2ccccc2)c2ccncc21 | 29.9 µM (inactive) | 32.6 µM (inactive) | 39.2 µM (inactive) | 29.6 µM (inactive) | 36.3 µM (inactive) | 21.2 µM (inactive) | 38.7 µM (inactive) | 24.4 µM (inactive) | 35.7 µM (inactive) | 31.3 µM (inactive) | 35.3 µM (inactive) | 53.7 µM (inactive) | – | 38.8 µM (inactive) | 41 µM (inactive) | 25.5 µM (inactive) | – | 57.7 µM (inactive) | 28.5 µM (inactive) | 24.7 µM (inactive) |
| N=C(N)N/N=C(\c1ccc(Cl)cc1)C1CC1 | 34.8 µM (inactive) | 32.4 µM (inactive) | 39 µM (inactive) | – | 15.4 µM (inactive) | 11.4 µM (inactive) | 7 µM (inactive) | 23.9 µM (inactive) | 16.3 µM (inactive) | 19 µM (inactive) | 16 µM (inactive) | 16.4 µM (inactive) | 16.2 µM (inactive) | 27.5 µM (inactive) | 18.5 µM (inactive) | 24.6 µM (inactive) | 18.5 µM (inactive) | 21.8 µM (inactive) | – | 22.2 µM (inactive) |
| Cc1ccc(C(=O)CC(Cl)=C(Cl)Cl)cc1 | 41.6 µM (inactive) | > 100 µM (inactive) | 38.8 µM (inactive) | 54 µM (inactive) | > 100 µM (inactive) | 25.7 µM (inactive) | – | – | > 100 µM (inactive) | > 100 µM (inactive) | 61.9 µM (inactive) | 31.7 µM (inactive) | > 100 µM (inactive) | > 100 µM (inactive) | > 100 µM (inactive) | > 100 µM (inactive) | 29.2 µM (inactive) | > 100 µM (inactive) | 25.8 µM (inactive) | > 100 µM (inactive) |
| CSC(SC)=C1CC(=O)Nc2ccccc2C1=O | 27.7 µM (inactive) | > 100 µM (inactive) | 34.1 µM (inactive) | 27.7 µM (inactive) | 80.2 µM (inactive) | 27.5 µM (inactive) | > 100 µM (inactive) | > 100 µM (inactive) | 37 µM (inactive) | > 100 µM (inactive) | > 100 µM (inactive) | 17.4 µM (inactive) | 35.9 µM (inactive) | > 100 µM (inactive) | > 100 µM (inactive) | 40.3 µM (inactive) | – | > 100 µM (inactive) | 19.7 µM (inactive) | – |
| COC(=O)C1=C(C)N2[C@H](C(=O)O)CO[C@@]2(C)[C@H](C(=O)OC)[C@H]1c1cccc([N+](=O)[O-])c1 | > 100 µM (inactive) | > 100 µM (inactive) | > 100 µM (inactive) | – | > 100 µM (inactive) | > 100 µM (inactive) | > 100 µM (inactive) | > 100 µM (inactive) | > 100 µM (inactive) | > 100 µM (inactive) | > 100 µM (inactive) | – | > 100 µM (inactive) | > 100 µM (inactive) | > 100 µM (inactive) | > 100 µM (inactive) | > 100 µM (inactive) | > 100 µM (inactive) | > 100 µM (inactive) | > 100 µM (inactive) |
| CCOC(=O)C1CC(O)C(=O)N1C (stereo unspecified) | – | > 100 µM (inactive) | > 100 µM (inactive) | > 100 µM (inactive) | > 100 µM (inactive) | > 100 µM (inactive) | > 100 µM (inactive) | > 100 µM (inactive) | > 100 µM (inactive) | > 100 µM (inactive) | > 100 µM (inactive) | > 100 µM (inactive) | > 100 µM (inactive) | > 100 µM (inactive) | – | > 100 µM (inactive) | > 100 µM (inactive) | > 100 µM (inactive) | > 100 µM (inactive) | – |
| CC(=O)CCC[C@H](C)[C@@H](O)[C@@H]1O[C@H]([C@@]2(C)CCC(=O)O2)C[C@H]1C(=O)O | > 100 µM (inactive) | > 100 µM (inactive) | > 100 µM (inactive) | – | – | 37.2 µM (inactive) | > 100 µM (inactive) | > 100 µM (inactive) | > 100 µM (inactive) | > 100 µM (inactive) | > 100 µM (inactive) | > 100 µM (inactive) | > 100 µM (inactive) | > 100 µM (inactive) | > 100 µM (inactive) | 35.6 µM (inactive) | > 100 µM (inactive) | > 100 µM (inactive) | > 100 µM (inactive) | > 100 µM (inactive) |
| Cc1ccc(C2=Nc3c(N)nc(N)nc3NC(c3ccccc3)C2)cc1 (stereo unspecified) | 3.51 µM (inactive) | 10.2 µM (inactive) | 14 µM (inactive) | – | 6.4 µM (inactive) | 3.56 µM (inactive) | 4.44 µM (inactive) | 12.4 µM (inactive) | 16.9 µM (inactive) | 9.55 µM (inactive) | 4.11 µM (inactive) | 10.1 µM (inactive) | 5.36 µM (inactive) | 12.5 µM (inactive) | – | 7.23 µM (inactive) | 4.84 µM (inactive) | 15.4 µM (inactive) | 7.83 µM (inactive) | 11.2 µM (inactive) |
| CCc1nnc(-n2c(C)nc3cc(Cl)ccc3c2=O)s1 | 29 µM (inactive) | 31 µM (inactive) | 80.9 µM (inactive) | 41 µM (inactive) | 38.7 µM (inactive) | 34.5 µM (inactive) | 49.8 µM (inactive) | 49.2 µM (inactive) | 40.9 µM (inactive) | 45.4 µM (inactive) | 26.4 µM (inactive) | 39.1 µM (inactive) | 40.7 µM (inactive) | 38.4 µM (inactive) | 38.5 µM (inactive) | 44.6 µM (inactive) | – | 33.8 µM (inactive) | 19.6 µM (inactive) | 34.9 µM (inactive) |
| O=c1[nH]c2ccccc2c(=O)n1/N=C\c1ccccc1O | > 100 µM (inactive) | > 100 µM (inactive) | > 100 µM (inactive) | 36.1 µM (inactive) | > 100 µM (inactive) | > 100 µM (inactive) | – | 22.8 µM (inactive) | > 100 µM (inactive) | > 100 µM (inactive) | > 100 µM (inactive) | > 100 µM (inactive) | > 100 µM (inactive) | > 100 µM (inactive) | 30.5 µM (inactive) | > 100 µM (inactive) | > 100 µM (inactive) | > 100 µM (inactive) | > 100 µM (inactive) | 36.4 µM (inactive) |
| CC1(C)CCC2=C(O1)c1ccccc1/C(=N/c1ccc([N+](=O)[O-])cc1)C2=O | 13.4 µM (inactive) | 16.4 µM (inactive) | 16.7 µM (inactive) | 0.728 µM (active) | 8.24 µM (inactive) | 14.2 µM (inactive) | 17.7 µM (inactive) | 16.4 µM (inactive) | 18.6 µM (inactive) | 17.1 µM (inactive) | 7.33 µM (inactive) | – | 51.1 µM (inactive) | 17.7 µM (inactive) | 14.5 µM (inactive) | 20.1 µM (inactive) | – | 12.9 µM (inactive) | – | 18.3 µM (inactive) |
| CC(C)c1cc2c(c(O)c1O)[C@@]1(C(=O)O)CCCC(C)(C)[C@@H]1CC2 [CARNOSIC ACID] | 28.4 µM (inactive) | 18.2 µM (inactive) | 27.8 µM (inactive) | – | – | 5.33 µM (inactive) | 13.2 µM (inactive) | 15.9 µM (inactive) | 13.4 µM (inactive) | 27.2 µM (inactive) | 28.7 µM (inactive) | 19.6 µM (inactive) | 19.4 µM (inactive) | 37.3 µM (inactive) | 14 µM (inactive) | 10.5 µM (inactive) | 7.48 µM (inactive) | 13.4 µM (inactive) | 3.18 µM (inactive) | 17.8 µM (inactive) |
